Experimental data: patent US11090247B2, “Compositions for protecting the skin from heavy metals and formaldehyde” (FNG RESEARCH CO., LTD., priority 2016, dated 2021)

Experiments:
[1] = Removal test of heavy metals of active ingredients (pig skin, ICP-MS): Pb; settings: contaminated pig skin
[2] = Removal test of heavy metals of active ingredients (pig skin, ICP-MS): Cu; settings: contaminated pig skin
[3] = Removal test of heavy metals of active ingredients (pig skin, ICP-MS): Cd; settings: contaminated pig skin
[4] = Formaldehyde removing ability test (GC); settings: 2.0% formaldehyde solution; for Area (mAU*min) 30 min: formaldehyde GC area after 30 min; for Area (mAU*min) 30 min / Area (mAU*min) 180 min: 3 molar equivalents, room temperature; for Area (mAU*min) 180 min: formaldehyde GC area after 180 min; for Area (mAU*min) Initial: formaldehyde GC area, initial state, 3 molar equivalents of compound
human skin = experiment: Skin irritation test of active ingredient (patch method, CTFA guidelines); type: in vivo; parameters: key to Degree of irritation: 0–0.1 none, 0.11–0.3 weak, 0.31–0.5 moderate, ≥0.51 strong irritation; settings: 20 people, patch 24 hours; for Test result(number of subject) (+): (+): Apparent reddening than periphery; for Test result(number of subject) (++): (++): More reddened and swollen than periphery; for Test result(number of subject) (±): (±): slightly reddish than the periphery; for Test result(number of subject) (−): (−): No erythema or particularly no symptoms

Compound	Removal of Heavy metals Pb (%) ([1]; 0.1 wt % aqueous solution)	Removal of Heavy metals Pb (%) ([1]; 0.5 wt % aqueous solution)	Removal of Heavy metals Pb (%) ([1]; 1.0 wt % aqueous solution)	Removal of Heavy metals Cu (%) ([2]; 0.1 wt % aqueous solution)	Removal of Heavy metals Cu (%) ([2]; 0.5 wt % aqueous solution)	Removal of Heavy metals Cu (%) ([2]; 1.0 wt % aqueous solution)	Removal of Heavy metals Cd (%) ([3]; 0.1 wt % aqueous solution)	Removal of Heavy metals Cd (%) ([3]; 0.5 wt % aqueous solution)	Removal of Heavy metals Cd (%) ([3]; 1.0 wt % aqueous solution)	Area (mAU*min) 30 min [4]	Area (mAU*min) 180 min [4]	Area (mAU*min) Initial [4]	Degree of irritation (human skin; 0.1 wt %)	Grade (human skin; 0.1 wt %)	Test result(number of subject) (+) (human skin; 0.1 wt %)	Test result(number of subject) (++) (human skin; 0.1 wt %)	Test result(number of subject) (±) (human skin; 0.1 wt %)	Test result(number of subject) (−) (human skin; 0.1 wt %)	Degree of irritation (human skin; 0.5 wt %)	Grade (human skin; 0.5 wt %)	other results
O=C(O)c1ccc(N2CCCN(c3ccc(C(=O)O)o3)CCN(c3ccc(C(=O)O)o3)CCCN(c3ccc(C(=O)O)o3)CC2)o1 [Embodiment 12, 5,5′,5″,5′″-(1,4,8,11-tetraazacyclotetradecane-1,4,8,11-tetrayl)tetrakis(furan-2-carboxylic acid)]	89.1%	90.9%	91.3%	94.5%	95.8%	96.3%	90.1%	90.7%	90.9%	0.170 mAU*min	0 mAU*min	0.305 mAU*min	0	I (Degree of irritation 0-0.1: Grade I (unstimulated))	0	0	0	20	0	I (Degree of irritation 0-0.1: Grade I (unstimulated))	Test result(number of subject) (+) (human skin; 0.5 wt %): 0; Test result(number of subject) (++) (human skin; 0.5 wt %): 0; Test result(number of subject) (±) (human skin; 0.5 wt %): 0; Test result(number of subject) (−) (human skin; 0.5 wt %): 20; Degree of irritation (human skin; 1.0 wt %): 0.05; Grade (human skin; 1.0 wt %): I (Degree of irritation 0-0.1: Grade I (unstimulated)); Test result(number of subject) (+) (human skin; 1.0 wt %): 0; Test result(number of subject) (++) (human skin; 1.0 wt %): 0; Test result(number of subject) (±) (human skin; 1.0 wt %): 1; Test result(number of subject) (−) (human skin; 1.0 wt %): 19
NCCNCCNCCN [Trientine, Triethylenetetramine, reference compound]	89.7%	92.1%	92.3%	92.6%	95.4%	96.0%	87.3%	92.4%	92.3%	0.168 mAU*min	0 mAU*min	0.305 mAU*min	0	I (Degree of irritation 0-0.1: Grade I (unstimulated))	0	0	0	20	0.05	I (Degree of irritation 0-0.1: Grade I (unstimulated))	Test result(number of subject) (+) (human skin; 0.5 wt %): 0; Test result(number of subject) (++) (human skin; 0.5 wt %): 0; Test result(number of subject) (±) (human skin; 0.5 wt %): 1; Test result(number of subject) (−) (human skin; 0.5 wt %): 19; Degree of irritation (human skin; 1.0 wt %): 0.15; Grade (human skin; 1.0 wt %): II (Degree of irritation 0.11-0.3: Grade II (weakly stimulated)); Test result(number of subject) (+) (human skin; 1.0 wt %): 0; Test result(number of subject) (++) (human skin; 1.0 wt %): 0; Test result(number of subject) (±) (human skin; 1.0 wt %): 3; Test result(number of subject) (−) (human skin; 1.0 wt %): 17
